Results as given in patent US12180215B2, “Substituted pyrrolo[3,4-d]imidazoles as JAK inhibitors” (HENAN MEDINNO PHARMACEUTICAL TECHNOLOGY CO., LTD., priority 2019, dated 2024).

Key:
TYK2 = molecular target: T1, TYK2 (Homo sapiens, UniProt P29597); experiment: TYK2 kinase ADP-Glo assay (Example 59); format: biochemical; conditions: for IC50: TYK2 (Invitrogen) 4 nM, ATP 10 μM, IRS1 0.03 mg/mL, 25° C. 60 min, read-out: IC50 (nM), TYK2 Experiment; for Hillslope, TYK2 Experiment: slope of the nonlinear IC50 fit
T1 construct: purchased Invitrogen PV4790

JAK2 = JAK2 (Homo sapiens, UniProt O60674); experiment: JAK2 kinase ADP-Glo assay (Example 59); conditions: for Hillslope, JAK2 Experiment: Example 59, slope of the nonlinear IC50 fit
JAK3 = JAK3 (Homo sapiens, UniProt P52333); experiment: JAK3 kinase ADP-Glo assay (Example 59); format: biochemical; set-up: purchased Invitrogen PV3855; conditions: for IC50: JAK3 (Invitrogen) 0.5 nM, ATP 10 μM, Poly (4:1 Glu, Tyr) 0.03 mg/mL, 25° C. 60 min, read-out: IC50 (nM), JAK3 Experiment; for Hillslope, JAK3 Experiment: slope of the nonlinear IC50 fit
JAK1 = JAK1 (Homo sapiens, UniProt P23458); experiment: JAK1 kinase ADP-Glo assay (Example 59); format: biochemical; set-up: purchased Invitrogen PV4774; conditions: for IC50: JAK1 (Invitrogen) 4 nM, ATP 20 μM, IRS1 0.05 mg/mL, 25° C. 60 min, read-out: IC50 (nM), JAK1 Experiment; for Hillslope, JAK1 Experiment: slope of the nonlinear IC50 fit
Sequence of JAK1 (P23458 866-1154 limits assumed): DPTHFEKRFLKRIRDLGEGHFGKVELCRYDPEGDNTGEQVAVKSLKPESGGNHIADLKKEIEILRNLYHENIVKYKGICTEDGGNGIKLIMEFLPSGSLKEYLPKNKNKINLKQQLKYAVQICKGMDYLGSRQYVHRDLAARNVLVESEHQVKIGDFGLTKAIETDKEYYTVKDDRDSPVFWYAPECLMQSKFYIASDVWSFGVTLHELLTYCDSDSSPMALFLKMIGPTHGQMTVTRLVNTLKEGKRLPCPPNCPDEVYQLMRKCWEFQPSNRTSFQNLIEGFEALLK

T1 sequence (P29597 833-1187 limits assumed): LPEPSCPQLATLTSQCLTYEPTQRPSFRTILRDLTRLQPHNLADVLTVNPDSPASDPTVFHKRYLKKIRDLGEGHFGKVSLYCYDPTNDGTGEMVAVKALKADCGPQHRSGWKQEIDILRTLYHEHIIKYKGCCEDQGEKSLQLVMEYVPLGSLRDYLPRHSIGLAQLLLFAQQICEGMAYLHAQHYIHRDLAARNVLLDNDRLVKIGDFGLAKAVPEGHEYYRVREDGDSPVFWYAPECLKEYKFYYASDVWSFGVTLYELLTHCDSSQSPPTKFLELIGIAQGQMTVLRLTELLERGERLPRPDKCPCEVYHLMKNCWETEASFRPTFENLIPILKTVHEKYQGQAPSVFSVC
Sequence of JAK2 (O60674 808-1132 limits assumed): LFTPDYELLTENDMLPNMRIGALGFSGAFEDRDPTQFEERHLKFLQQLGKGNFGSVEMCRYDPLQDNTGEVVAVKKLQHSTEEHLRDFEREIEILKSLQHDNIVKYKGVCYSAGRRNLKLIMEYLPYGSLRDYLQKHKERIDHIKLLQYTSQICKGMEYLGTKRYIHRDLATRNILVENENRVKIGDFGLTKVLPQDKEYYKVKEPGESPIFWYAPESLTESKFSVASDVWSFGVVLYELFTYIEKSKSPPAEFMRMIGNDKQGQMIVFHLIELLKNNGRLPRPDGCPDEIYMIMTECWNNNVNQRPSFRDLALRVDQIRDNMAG
Sequence of JAK3 (P52333 781-1124 limits assumed): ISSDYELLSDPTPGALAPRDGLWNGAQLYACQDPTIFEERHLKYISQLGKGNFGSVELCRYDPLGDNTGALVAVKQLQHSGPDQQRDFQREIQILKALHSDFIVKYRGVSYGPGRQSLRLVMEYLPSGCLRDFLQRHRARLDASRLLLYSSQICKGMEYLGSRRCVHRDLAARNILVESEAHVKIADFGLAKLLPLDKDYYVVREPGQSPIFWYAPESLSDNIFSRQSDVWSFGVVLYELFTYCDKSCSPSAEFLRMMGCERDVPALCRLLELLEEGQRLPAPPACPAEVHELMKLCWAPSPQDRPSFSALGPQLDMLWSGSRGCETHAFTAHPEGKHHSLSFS

Structure (SMILES)	IC50 (TYK2)	IC50 (JAK2)	IC50 (JAK3)	IC50 (JAK1)	Hillslope, TYK2 Experiment (TYK2)	Hillslope, JAK2 Experiment (JAK2)	Hillslope, JAK3 Experiment (JAK3)	Hillslope, JAK1 Experiment (JAK1)
CCc1cc(O)c(F)cc1-c1ccc2c(-c3nc4c([nH]3)CN(C(=O)c3cnn(C)c3)C4)n[nH]c2c1 [MDI-202, (2-(6-(2-ethyl-5-fluoro-4-hydroxyphenyl)-1H-indazol-3-yl)-4,6-dihydropyrrolo[3,4-d]imidazol-5(1H)-yl)(1-methyl-1H-pyrazol-4-yl)ketone]	0.318 nM	0.279 nM	0.16 nM	0.125 nM	–	–	–	–
CCc1cc(O)c(F)cc1-c1ccc2c(-c3nc4c([nH]3)CN(C(=O)c3cnc(N5CCCCC5)cn3)C4)n[nH]c2c1 [MDI-2, (2-(6-(2-ethyl-5-fluoro-4-hydroxyphenyl)-1H-indazol-3-yl)-4,6-dihydropyrrolo[3,4-d]imidazol-5(1H)-yl)(5-(piperidin-1-yl)pyrazin-2-yl)ketone]	1.63 nM	0.772 nM	0.765 nM	0.806 nM	–	–	–	–
CCc1cc(O)c(F)cc1-c1ccc2c(-c3nc4c([nH]3)CN(C3CCC(O)CC3)C4)n[nH]c2c1 (stereo not shown) [MDI-217, 5-ethyl-2-fluoro-4-(3-(5-(4-hydroxylcyclohexyl)-1,4,5,6-tetrahydropyrrolo[3,4-d]imidazol-2-yl)-1H-indazol-6-yl)phenol]	0.391 nM	–	0.137 nM	0.122 nM	–	–	–	–
CCc1cc(O)c(F)cc1-c1ccc2c(-c3nc4c([nH]3)CN(C(=O)C3CCN(C)CC3)C4)n[nH]c2c1 [MDI-203, (2-(6-(2-ethyl-5-fluoro-4-hydroxyphenyl)-1H-indazol-3-yl)pyrrolo[3,4-d]imidazol-5(1H, 4H,6H)-yl)(1-methylpiperidin-4-yl)ketone]	0.328 nM	0.208 nM	0.212 nM	0.16 nM	–	–	–	–
CCc1cc(O)c(F)cc1-c1ccc2c(-c3nc4c([nH]3)CN(C(=O)C3CC(O)C3)C4)n[nH]c2c1 (stereo not shown) [MDI-213, (2-(6-(2-ethyl-5-fluoro-4-hydroxyphenyl)-1H-indazol-3-yl)pyrrolo[3,4-d]imidazol-5(1H,4H,6H)-yl)(3-hydroxylcyclobutyl)ketone]	0.146 nM	0.166 nM	0.116 nM	0.146 nM	–	–	–	–
O=C(Nc1nc2cccc(-c3ccc(CN4CCS(=O)(=O)CC4)cc3)n2n1)C1CC1 [Filgotinib, reference compound]	–	–	–	–	1.037	1.142	1.318	1.067
CCc1cc(O)c(F)cc1-c1ccc2c(-c3nc4c([nH]3)CN(S(=O)(=O)c3ccccc3)C4)n[nH]c2c1 [MDI-206, 5-ethyl-2-fluoro-4-(3-(5-(benzenesulfonyl)-1,4,5,6-tetrahydropyrrolo[3,4-d]imidazol-2-yl)-1H-indazol-6-yl)phenol]	7.23 nM	0.556 nM	0.628 nM	0.943 nM	0.744	1.457	1.216	1.091
CCc1cc(O)c(F)cc1-c1ccc2c(-c3nc4c([nH]3)CN(Cc3cnccn3)C4)n[nH]c2c1 [MDI-207, 5-ethyl-2-fluoro-4-(3-(5-(pyrazin-2ylmethyl)-1,4,5,6-tetrahydropyrrolo[3,4-d]imidazol-2-yl)-1H-indazol-6-yl)phenol]	0.474 nM	0.16 nM	0.132 nM	0.12 nM	–	–	–	–
CCc1cc(O)c(F)cc1-c1ccc2c(-c3nc4c([nH]3)CN(C(=O)C3CC3)C4)n[nH]c2c1 [MDI-209, cyclopropyl (2-(6-(2-ethyl-5-fluoro-4-hydroxyphenyl)-1H-indazol-3-yl)pyrrolo[3,4-d]imidazol-5(1H, 4H,6H)-yl)ketone]	0.281 nM	0.165 nM	0.158 nM	0.128 nM	–	–	–	–
CCc1cc(O)c(F)cc1-c1ccc2c(-c3nc4c([nH]3)CN(C(=O)C3CCC3)C4)n[nH]c2c1 [MDI-211, cyclobutyl (2-(6-(2-ethyl-5-fluoro-4-hydroxyphenyl)-1H-indazol-3-yl)pyrrolo[3,4-d]imidazol-5(1H, 4H,6H)-yl)ketone]	0.266 nM	0.198 nM	0.16 nM	0.162 nM	–	–	–	–
